Laboratory results: ChEMBL document CHEMBL3351857, “Synthesis and biological evaluation of 2,3'-diindolylmethanes as agonists of aryl hydrocarbon receptor” (Bioorg Med Chem Lett, 2014)

What was measured:
[1] = target: T1, Aryl hydrocarbon receptor (AhR) (Homo sapiens, UniProt P35869); assay: Activation of AhR in human HepG2 cells assessed as fluorescence after 24 hrs incubation at 10 nM by EROD assay relative to control; format: cell-based; details: read-out: FC
T1 sequence (P35869 whole entry): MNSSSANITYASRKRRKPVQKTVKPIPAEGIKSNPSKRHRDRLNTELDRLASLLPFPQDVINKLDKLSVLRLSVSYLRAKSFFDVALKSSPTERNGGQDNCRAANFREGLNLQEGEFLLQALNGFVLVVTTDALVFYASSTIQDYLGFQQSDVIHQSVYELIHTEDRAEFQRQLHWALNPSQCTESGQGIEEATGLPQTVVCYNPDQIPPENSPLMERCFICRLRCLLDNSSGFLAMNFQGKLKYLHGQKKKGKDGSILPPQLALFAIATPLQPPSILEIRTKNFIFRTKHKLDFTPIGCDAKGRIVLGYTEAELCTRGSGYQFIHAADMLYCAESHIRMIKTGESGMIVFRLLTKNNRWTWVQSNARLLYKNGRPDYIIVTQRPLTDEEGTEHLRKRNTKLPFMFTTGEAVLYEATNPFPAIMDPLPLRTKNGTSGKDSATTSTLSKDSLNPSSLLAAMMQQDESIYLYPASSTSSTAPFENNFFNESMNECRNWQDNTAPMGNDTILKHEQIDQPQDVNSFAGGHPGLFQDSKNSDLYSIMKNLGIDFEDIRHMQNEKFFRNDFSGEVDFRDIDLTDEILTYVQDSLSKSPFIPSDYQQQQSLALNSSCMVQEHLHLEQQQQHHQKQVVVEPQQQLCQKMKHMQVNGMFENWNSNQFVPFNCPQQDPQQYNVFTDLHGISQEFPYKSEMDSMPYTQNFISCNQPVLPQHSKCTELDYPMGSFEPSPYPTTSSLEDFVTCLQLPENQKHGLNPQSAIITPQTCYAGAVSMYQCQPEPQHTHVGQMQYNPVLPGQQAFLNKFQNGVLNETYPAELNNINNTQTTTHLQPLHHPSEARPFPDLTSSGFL

Homo sapiens = organism: Homo sapiens; assay: Half life in human; format: ADME, organism-based; details: in vivo
[2] = target: T2, Aryl hydrocarbon receptor (Homo sapiens, UniProt P35869); assay: Activation of AhR in human HepG2 cells assessed as fluorescence after 24 hrs incubation by EROD assay; format: cell-based
T2 sequence (P35869 whole entry): T1 sequence (P35869 whole entry)

fold induction at 24 h, 0.01 µM [1] | Compound | also measured
5 | O=Cc1c(Cc2c[nH]c3ccc(Cl)cc23)[nH]c2ccccc12 | 
 | Clc1cc2c(cc1Cl)Oc1cc(Cl)c(Cl)cc1O2 [2,3,7,8-TETRACHLORODIBENZO-P-DIOXIN] | t1/2 (Homo sapiens): 7 yr
 | Clc1ccc2[nH]cc(Cc3cc4ccccc4[nH]3)c2c1 | EC50 [2]: > 6.7 µM
6 | Cn1cc(Cc2[nH]c3ccccc3c2C=O)c2ccccc21 | 
